# Measurements: PubChem BioAssay AID1919013 (Molecular Pharmacology Branch, DTP, NCI, 2023)
# Test system: LG0703-F498-PDC complex spheroid growth
# Assay: Anticancer human tumor LG0703-F498-PDC patient-derived lung adenocarcinoma cell line growth inhibition [AhR]
# Conditions: for IC50: curve of first compound; for viability, T/C: stronger effect = lower value
# Text: Multicellular complex tumor spheroid response to aryl hydrocarbon receptor antagonists in combination with a variety of drugs and investigational agents in selected tumor cell lines
# The current study was undertaken to assess response to aryl hydrocarbon receptor antagonists in combination with standard-of-care drugs and investigational agents in solid tumor complex spheroid models. Complex spheroids include a stromal component modeled by human endothelial cells (HUVEC) and fibroblasts modeled by human mesenchymal stem cells (MSCs). The concentration ranges selected for each drug and investigational agent were based upon clinically achievable concentrations if the clinical Cmax of the agent was known.
# Compounds. The drugs and investigational agents: BAY 2416964 (NSC825713), GNF351 (NSC835774), CH-223191 (NSC835775), CPI-455 (NSC825282), aza-TdCyd (NSC777586), decitabine (NSC127716), belinostat (NSC758774), entinostat (NSC756642), pevonedistat (NSC761192), tazemetostat (NSC777109), talazoparib (NSC765396), olaparib (NSC753686), selinexor (NSC780203), nedisertib (M3814, NSC802822), bortezomib (NSC756655), venetoclax (NSC766270), doxorubicin (NSC123127), elimusertib (BAY189344, NSC800525), ceralasertib (AZD6738, NSC777638), TAK-243 (NSC785004), alisertib (NSC759677), etoposide (NSC141540), topotecan (NSC609699), eribulin (NSC707389), gemcitabine (NSC613327), carboplatin (NSC241240), cisplatin (NSC119875), and SN-38 (NSC673596) were obtained from the National Cancer Institute (NCI) Developmental Therapeutics Program Chemical Repository (32). The FDA-approved anticancer drug set is available from the Developmental Therapeutics Program at https://dtp.cancer.gov/organization/dscb/obtaining/available plates.htm. […] The stock solutions were prepared in dimethyl sulfoxide (DMSO, Sigma-Aldrich, St. Louis, MO, cat. D2650), except for the platinum compounds which were prepared in saline (Quality Biological, Gaithersburg, MD, cat. 114-055-101), at 800-fold the tested concentration and stored at -70 degrees C prior to their use. All drugs and investigational agents were tested over a range starting from a high concentration at or near the clinical Cmax and decreasing in half-log increments. If the clinical Cmax for an agent had not been determined, the highest concentration tested was 10 microM (Table 1).
# Cell Culture. All cells were maintained in an incubator at 37 degrees C and 5% CO2 with 95% humidity. The PDC lines were cultured according to standard operating procedures established by the NCI PDMR (https://pdmr.cancer.gov). Briefly, all PDCs were thawed and cultured in Matrigel-coated flasks prepared with a working solution of 1X Ham's F-12 nutrient mix, without supplementation (Invitrogen, Waltham, MA, cat. 11765054), 100 U/mL penicillin-streptomycin (Invitrogen, cat. 15140122), and 2.5% Matrigel (Corning Inc., Corning, NY, cat. 354248) for the first three passages. All PDCs were cultured in complete DMEM/F-12 media containing advanced DMEM/F-12 (Invitrogen, cat. 12634028), 4.9% defined fetal bovine serum, heat inactivated (HyClone Laboratories Inc., Logan, UT, cat. SH30070.03HI), 389 ng/mL hydrocortisone (Sigma-Aldrich, cat. H4001), 9.7 ng/mL human EGF recombinant protein (Invitrogen, cat. PHG0313), 23.4 microg/mL adenine (Sigma-Aldrich, cat. A2786), 97.3 U/mL penicillin-streptomycin (Invitrogen, cat. 15140122), 1.9 mM L-glutamine (Invitrogen, cat. 25030081), and 9.7 microM Y-27632 dihydrochloride (Tocris Bioscience, Bristol, United Kingdom, cat. 1254). The PDCs were cultured in complete DMEM/F12 media without 10 microM Y-27632 dihydrochloride for at least two passages prior to the screen. The established cell lines NCI-H1341 and […] were cultured in DMEM/F-12, HEPES (Invitrogen, cat. 11330032), 5% defined fetal bovine serum (HyClone Laboratories Inc., cat. SH30070.03), ITS premix universal culture supplement [insulin (5 microg/mL), transferrin (5 microg/mL), and selenious acid (5 ng/mL)] […]
# [1] = second compound 0.1 µM, first compound 0.0316 µM
# [2] = second compound 0.1 µM, first compound 0.1 µM
# [3] = second compound 0.1 µM, first compound 0.316 µM
# [4] = second compound 0.1 µM, first compound 1 µM
# [5] = second compound 0.316 µM, first compound 0.0316 µM
# [6] = second compound 0.316 µM, first compound 0.1 µM
# [7] = second compound 0.316 µM, first compound 0.316 µM
# [8] = second compound 0.316 µM, first compound 1 µM
# [9] = second compound 1 µM, first compound 0.0316 µM
# [10] = second compound 1 µM, first compound 0.1 µM
# [11] = second compound 1 µM, first compound 0.316 µM
# [12] = second compound 1 µM, first compound 1 µM
# [13] = second compound 3.16 µM, first compound 0.0316 µM
# [14] = second compound 3.16 µM, first compound 0.1 µM
# [15] = second compound 3.16 µM, first compound 0.316 µM
# [16] = second compound 3.16 µM, first compound 1 µM
# [17] = second compound 10 µM, first compound 0.0316 µM
# [18] = second compound 10 µM, first compound 0.1 µM
# [19] = second compound 10 µM, first compound 0.316 µM
# [20] = second compound 10 µM, first compound 1 µM
# 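Note: luminescence taken as a proxy for viable cell amount.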
# 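Throughout, for viability, T/C: percent of DMSO vehicle control where 100% means growth equal to vehicle.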
Structure (SMILES),IC50 (second compound 0.1 µM) [nM],IC50 (second compound 0.316 µM) [nM],IC50 (second compound 1 µM) [nM],IC50 (second compound 3.16 µM) [nM],IC50 (second compound 10 µM) [nM],"viability, T/C [1] [%]","viability, T/C [2] [%]","viability, T/C [3] [%]","viability, T/C [4] [%]","viability, T/C [5] [%]","viability, T/C [6] [%]","viability, T/C [7] [%]","viability, T/C [8] [%]","viability, T/C [9] [%]","viability, T/C [10] [%]","viability, T/C [11] [%]","viability, T/C [12] [%]","viability, T/C [13] [%]","viability, T/C [14] [%]","viability, T/C [15] [%]",also measured
Nc1ccccc1NC(=O)c1ccc(CNC(=O)OCc2cccnc2)cc1 + Cc1cncc(-c2nc(NCCc3c[nH]c4ccccc34)c3ncn(C(C)C)c3n2)c1,849,563,571,< 31.6,< 31.6,93,89.2,68.7,53.4,100,90.4,67.2,34.5,78.4,87.5,62.8,36.5,34,23.7,21,"viability, T/C (second compound 0.1 µM, first compound 3.16 µM): 4.49%; viability, T/C (second compound 0.1 µM, first compound 10 µM): 0.69%; viability, T/C (second compound 0.316 µM, first compound 3.16 µM): 3.29%; viability, T/C (second compound 0.316 µM, first compound 10 µM): 0.43%; viability, T/C (second compound 1 µM, first compound 3.16 µM): 2.86%; viability, T/C (second compound 1 µM, first compound 10 µM): 0.16%; viability, T/C [16]: 10.6%; viability, T/C (second compound 3.16 µM, first compound 3.16 µM): 3.34%; viability, T/C (second compound 3.16 µM, first compound 10 µM): 0.15%; viability, T/C [17]: 0.75%; viability, T/C [18]: 0.81%; viability, T/C [19]: 0.77%; viability, T/C [20]: 0.69%; viability, T/C (second compound 10 µM, first compound 3.16 µM): 0.77%; viability, T/C (second compound 10 µM, first compound 10 µM): 0.17%"
Nc1ncn(C2CC(O)C(CO)O2)c(=O)n1 (stereo not given) + Cc1ccccc1N=Nc1ccc(NC(=O)c2ccnn2C)c(C)c1,> 1000,> 1000,> 1000,> 1000,> 1000,94.8,85,83.2,83.9,92.1,90.1,76.5,87,88,89.7,75.4,92.6,87,75,79.4,"viability, T/C (second compound 0.1 µM, first compound 0.00316 µM): 96.5%; viability, T/C (second compound 0.1 µM, first compound 0.01 µM): 99.1%; viability, T/C (second compound 0.316 µM, first compound 0.00316 µM): 97%; viability, T/C (second compound 0.316 µM, first compound 0.01 µM): 93.6%; viability, T/C (second compound 1 µM, first compound 0.00316 µM): 86.2%; viability, T/C (second compound 1 µM, first compound 0.01 µM): 101%; viability, T/C (second compound 3.16 µM, first compound 0.00316 µM): 95.2%; viability, T/C (second compound 3.16 µM, first compound 0.01 µM): 97.6%; viability, T/C [16]: 65.5%; viability, T/C (second compound 10 µM, first compound 0.00316 µM): 85.9%; viability, T/C (second compound 10 µM, first compound 0.01 µM): 90.9%; viability, T/C [17]: 86.6%; viability, T/C [18]: 72.4%; viability, T/C [19]: 74.2%; viability, T/C [20]: 68.3%"
